Patent publication US20250090510A1, “eIF4G1-eIF1 INHIBITORS AND USE THEREOF” (YEDA RESEARCH AND DEVELOPMENT CO. LTD., priority 2022, published 2025)

Biological target: T1, eIF4E-eIF4G1 complex (Homo sapiens, UniProt Q04637)
T1 construct: co-immunoprecipitation of endogenous eIF4G1 in HEK293T cells expressing HA-eIF1 or HA-eIF4E was performed; endogenous in cells; host or cells: HEK293T (eIF4G1 endogenous; HA-eIF4E transfected)
Assay: Co-immunoprecipitation of endogenous eIF4G1 with HA-eIF4E
Type: cell-based
Settings: HEK293T; i14G1-10 20 μM, i14G1-12 10 μM; 4 h
Procedure: FIGS. 2A-C: The effect of i14G1-10 and i14G1-12 on eIF1-eIF4G1 and eIF4E-eIF4G1 complexes. (2A-B) HA-eIF1 and HA-eIF4E were each transfected into HEK293T cells and 48 h after transfection cells were treated with DMSO or i14G1-10 (2A) or i14G1-12 (2B) for 4 h, followed by immunoprecipitation of HA-eIF1 or HA-eIF4E using anti-HA-agarose beads. Western blot was run to check co-immunoprecipitation of endogenous eIF4G1 with HA-eIF1 or HA-eIF4E. The graphs represent the co-immunoprecipitation of eIF4G1 with HA-eIF1 (right) or HA-eIF4E (left). Co—IP data shown as mean±SEM of 4-7 independent experiments. The asterisks denote statistically significant difference compared to DMSO, according to Student's t-tests (one-tailed, paired). *p<0.05. (2C) HEK293T cells were treated with DMSO, i14G1-10, or i14G1-12 for 4 h, followed by cell lysis. Respective cell lysates were incubated with cap analog (γ-Aminohexyl-m7GTP) beads for 2 h to precipitate bound eIF4E. Western blot was performed to check co-precipitation of eIF4G1 along with eIF4E on the cap-analog beads. The graph represents the binding fraction of eIF4G1 and eIF4E to the cap-analog beads (mean±SEM) with DMSO (black), i14G1-10 (blue), and i14G1-12 (red), n=6. The asterisks denote statistically significant difference compared to DMSO, according to Student's t-tests (one-tailed, paired). *p<0.05; **p<0.01.
Co-immunoprecipitation. HEK293T cells were transfected with 5 μg of HA-eIF1 or HA-eIF4E plasmids along with 10 ng GFP plasmid to check for transfection efficiency using Jetprime reagent as per manufacturer's protocol. After 48 h, HA-eIF1 and HA-eIF4E expressing HEK293T cells were incubated with DMSO, i14G1-10 (20 μM), and […] (10 μM). 4 h later, cells were lysed using IP buffer (20 mM Tris pH8, 125 mM NaCl, 10% glycerol, 50 mM NaF, 1 mM […], 0.5% NP-40, and 0.2 mM EDTA) supplemented with fresh protease inhibitor cocktail (1:100) and PMSF 200 μM (1:100). Protein extract was taken for immunoprecipitation using either monoclonal anti-HA-agarose antibody (Sigma) or control IgG antibody in IP buffer, at 4° C. for 2 hours. […]

T1 sequence (Q04637 whole entry): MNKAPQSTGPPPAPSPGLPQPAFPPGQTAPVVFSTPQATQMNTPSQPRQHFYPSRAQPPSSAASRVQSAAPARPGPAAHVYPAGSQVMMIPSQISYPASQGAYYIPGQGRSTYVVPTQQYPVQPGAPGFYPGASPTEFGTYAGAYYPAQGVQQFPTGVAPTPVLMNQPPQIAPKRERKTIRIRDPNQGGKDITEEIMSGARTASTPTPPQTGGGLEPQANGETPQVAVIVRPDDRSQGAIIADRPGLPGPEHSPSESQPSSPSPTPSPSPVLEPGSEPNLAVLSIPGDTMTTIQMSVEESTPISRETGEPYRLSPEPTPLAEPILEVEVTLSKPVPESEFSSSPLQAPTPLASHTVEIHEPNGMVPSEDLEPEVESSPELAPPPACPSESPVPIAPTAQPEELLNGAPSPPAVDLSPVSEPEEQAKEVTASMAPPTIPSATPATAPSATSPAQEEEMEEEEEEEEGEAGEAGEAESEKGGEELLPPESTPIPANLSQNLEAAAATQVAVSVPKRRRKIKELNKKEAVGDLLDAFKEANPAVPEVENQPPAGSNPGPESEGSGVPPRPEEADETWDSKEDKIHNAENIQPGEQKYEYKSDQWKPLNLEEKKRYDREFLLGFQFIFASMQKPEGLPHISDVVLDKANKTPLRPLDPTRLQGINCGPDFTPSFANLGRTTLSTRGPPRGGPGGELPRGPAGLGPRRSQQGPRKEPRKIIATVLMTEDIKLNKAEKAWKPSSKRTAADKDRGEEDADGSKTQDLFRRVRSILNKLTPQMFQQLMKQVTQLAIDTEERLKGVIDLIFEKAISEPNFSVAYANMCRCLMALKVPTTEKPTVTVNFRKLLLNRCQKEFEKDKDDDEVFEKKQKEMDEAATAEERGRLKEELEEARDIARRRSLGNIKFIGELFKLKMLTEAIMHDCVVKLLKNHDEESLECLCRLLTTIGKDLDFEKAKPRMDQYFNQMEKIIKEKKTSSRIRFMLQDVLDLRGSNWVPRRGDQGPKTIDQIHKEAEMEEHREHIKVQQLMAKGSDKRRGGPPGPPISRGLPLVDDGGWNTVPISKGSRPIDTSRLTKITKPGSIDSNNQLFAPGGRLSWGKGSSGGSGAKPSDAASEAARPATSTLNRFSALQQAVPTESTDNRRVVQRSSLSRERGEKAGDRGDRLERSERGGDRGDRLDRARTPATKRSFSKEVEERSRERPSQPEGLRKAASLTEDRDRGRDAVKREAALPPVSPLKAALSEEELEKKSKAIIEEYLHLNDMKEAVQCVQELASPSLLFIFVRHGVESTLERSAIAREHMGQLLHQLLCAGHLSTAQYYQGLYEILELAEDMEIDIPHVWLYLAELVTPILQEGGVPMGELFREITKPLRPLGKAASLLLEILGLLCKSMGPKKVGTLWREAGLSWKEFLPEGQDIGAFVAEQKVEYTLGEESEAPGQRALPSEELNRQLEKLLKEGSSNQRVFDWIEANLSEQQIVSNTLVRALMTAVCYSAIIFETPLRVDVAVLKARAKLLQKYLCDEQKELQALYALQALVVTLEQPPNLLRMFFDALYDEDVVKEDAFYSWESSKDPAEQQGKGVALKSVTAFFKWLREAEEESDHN
T1 sequence (P06730 whole entry partner): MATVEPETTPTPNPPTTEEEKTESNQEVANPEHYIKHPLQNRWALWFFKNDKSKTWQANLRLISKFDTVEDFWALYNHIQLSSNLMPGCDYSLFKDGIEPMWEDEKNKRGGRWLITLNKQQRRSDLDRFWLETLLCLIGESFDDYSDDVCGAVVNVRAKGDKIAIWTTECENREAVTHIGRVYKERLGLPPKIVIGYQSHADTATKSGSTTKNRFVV

| SMILES | enhancement of eIF4G1 binding to HA-eIF4E |
| --- | --- |
| O=C(/C=C/Sc1ccc(C(F)(F)F)cn1)c1ccccc1 [i14G1-10] | dramatic enhancement |
| Cn1ccnc1S/C(=C/C=C(C#N)C#N)c1ccc(Cl)cc1 [i14G1-12] | not significant |
